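In this assay, cells in 96-well plates receive the compound at five concentrations for 48 hours. Endpoints are linearly interpolated between the surrounding concentrations. GI50 = concentration required for 50% inhibition of growth.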 Calls of active or inactive are those of the source. Rule as the data show it: active = GI50 up to about 1.1 µM and inactive = higher. Where a SMILES comes first, the peptide text is derived from it. [ ]: non-standard residue; d: D form. The star is where a group is joined. Phe(4-NO2) = N[CH](Cc1ccc([N+](=O)[O-])cc1)C(=O)O; Boc = CC(C)(C)OC(=O)*
How the values were obtained:
Test in all cases: inhibition of tumour cell growth, NCI panel, 48 h
786-0 = test system: 786-0
COLO 205 = test system: COLO 205
HCT-15 = test system: HCT-15
HOP-62 = test system: HOP-62
HT-29 = test system: HT-29
KM12 = test system: KM12
MDA-N = test system: MDA-N
Malme-3M = test system: Malme-3M
NCI-H23 = test system: NCI-H23
NCI-H522 = test system: NCI-H522
OVCAR-5 = test system: OVCAR-5
PC-3 = test system: PC-3
SF-539 = test system: SF-539
SK-MEL-2 = test system: SK-MEL-2
SK-OV-3 = test system: SK-OV-3
SN12C = test system: SN12C
SR = test system: SR
SW-620 = test system: SW-620
HL-60 = test system: HL-60

Measured: GI50

Oc1ccnc(SCc2ccc(Cl)cc2)n1
inactive: 786-0 > 100 µM | COLO 205 > 100 µM | HOP-62 > 100 µM | HT-29 > 100 µM | KM12 > 100 µM | MDA-N > 100 µM | Malme-3M > 100 µM | NCI-H23 > 100 µM | NCI-H522 62.2 µM | OVCAR-5 > 100 µM | PC-3 > 100 µM | SF-539 > 100 µM | SK-MEL-2 > 100 µM | SK-OV-3 > 100 µM | SN12C > 100 µM | SR > 100 µM | SW-620 > 100 µM
> 100 µM: HCT-15

Cc1c(CN2CCOCC2)c(CN2CCOCC2)c(C)n1-c1ccc(Cl)cn1
inactive: 786-0 > 100 µM | COLO 205 > 100 µM | HOP-62 > 100 µM | HT-29 > 100 µM | KM12 > 100 µM | MDA-N > 100 µM | Malme-3M > 100 µM | NCI-H23 > 100 µM | NCI-H522 > 100 µM | OVCAR-5 > 100 µM | PC-3 > 100 µM | SK-MEL-2 > 100 µM | SK-OV-3 > 100 µM | SN12C > 100 µM | SR > 100 µM | SW-620 > 100 µM
> 100 µM: HCT-15

C=C(CCC/C(C)=C/C=C/[C@@H](C)CCCc1ccoc1)C[C@@H]1OC(=O)[C@H](C)[C@@H]1O
10.1 µM: HCT-15
inactive: 786-0 10.8 µM | COLO 205 8.43 µM | HOP-62 8.69 µM | HT-29 > 50 µM | KM12 7.24 µM | MDA-N 9.73 µM | Malme-3M 8.91 µM | NCI-H23 8.09 µM | NCI-H522 7.08 µM | OVCAR-5 18.4 µM | PC-3 7.31 µM | SF-539 8.17 µM | SK-MEL-2 8.18 µM | SK-OV-3 7.46 µM | SN12C 9.68 µM | SR 10.7 µM | SW-620 11.4 µM

C[C@]12[C@@H]3CC[C@H]1[C@@H](O)C(=O)N2CC3
inactive: 786-0 > 100 µM | COLO 205 > 100 µM | HL-60 > 100 µM | HOP-62 > 100 µM | HT-29 > 100 µM | KM12 > 100 µM | MDA-N > 100 µM | Malme-3M > 100 µM | NCI-H23 > 100 µM | NCI-H522 > 100 µM | OVCAR-5 > 100 µM | PC-3 > 100 µM | SK-MEL-2 > 100 µM | SK-OV-3 > 100 µM | SN12C > 100 µM | SR > 100 µM | SW-620 > 100 µM
> 100 µM: HCT-15

COc1ccc(/C=N\N2CC(=O)N3C4C=CC(CC4)N3C2=O)cc1 (configuration not stated)
inactive: 786-0 > 100 µM | COLO 205 > 100 µM | HL-60 53.1 µM | HOP-62 46.7 µM | HT-29 > 100 µM | KM12 > 100 µM | MDA-N > 100 µM | NCI-H23 > 100 µM | OVCAR-5 > 100 µM | PC-3 > 100 µM | SF-539 > 100 µM | SK-MEL-2 > 100 µM | SK-OV-3 > 100 µM | SN12C > 100 µM | SR > 100 µM | SW-620 > 100 µM
> 100 µM: HCT-15

FC(F)(Sc1nc2ccccc2[nH]1)c1nc2ccccc2o1
> 100 µM: HCT-15
inactive: 786-0 > 100 µM | COLO 205 > 100 µM | HOP-62 > 100 µM | HT-29 > 100 µM | KM12 > 100 µM | MDA-N > 100 µM | Malme-3M 24.4 µM | NCI-H23 > 100 µM | NCI-H522 15.8 µM | OVCAR-5 > 100 µM | PC-3 > 100 µM | SF-539 > 100 µM | SK-MEL-2 > 100 µM | SK-OV-3 > 100 µM | SN12C > 100 µM | SR > 100 µM | SW-620 > 100 µM

CNC(Cc1ccccc1)c1cccc(OC)c1O (configuration not stated)
inactive: 786-0 > 100 µM | HOP-62 > 100 µM | HT-29 91.6 µM | KM12 > 100 µM | MDA-N 99.3 µM | Malme-3M > 100 µM | NCI-H23 > 100 µM | NCI-H522 > 100 µM | OVCAR-5 > 100 µM | PC-3 60.7 µM | SK-MEL-2 > 100 µM | SN12C > 100 µM | SR > 100 µM | SW-620 > 100 µM
> 100 µM: HCT-15

COc1cc2oc(-c3ccc4c(c3)OCO4)c(OC)c(=O)c2c(O)c1OC
inactive: 786-0 > 50 µM | COLO 205 > 50 µM | HL-60 > 50 µM | HOP-62 15.7 µM | HT-29 > 50 µM | KM12 > 50 µM | MDA-N > 50 µM | Malme-3M > 50 µM | NCI-H23 35.6 µM | NCI-H522 > 50 µM | OVCAR-5 > 50 µM | PC-3 > 50 µM | SF-539 > 50 µM | SK-MEL-2 > 50 µM | SK-OV-3 > 50 µM | SN12C > 50 µM | SW-620 > 50 µM
> 50 µM: HCT-15

CC1(/C=C/CCSc2ccccc2)CC(=O)C2CC1C2(C)C (configuration not stated)
inactive: 786-0 20.2 µM | COLO 205 30 µM | HOP-62 36.9 µM | HT-29 12.4 µM | KM12 13.2 µM | MDA-N 26.9 µM | Malme-3M 21.3 µM | NCI-H23 12.1 µM | NCI-H522 13 µM | OVCAR-5 44.9 µM | PC-3 6.08 µM | SF-539 7.96 µM | SK-MEL-2 14.3 µM | SK-OV-3 > 72.4 µM | SN12C 19.1 µM | SR 3.19 µM | SW-620 32.5 µM
15.8 µM: HCT-15

C#CCC(O)c1ccc(OC)c(OCc2ccccc2)c1 (configuration not stated)
> 100 µM: HCT-15
inactive: 786-0 > 100 µM | COLO 205 > 100 µM | HL-60 > 100 µM | HOP-62 > 100 µM | HT-29 > 100 µM | KM12 > 100 µM | MDA-N > 100 µM | Malme-3M > 100 µM | NCI-H23 > 100 µM | NCI-H522 > 100 µM | OVCAR-5 > 100 µM | PC-3 > 100 µM | SF-539 > 100 µM | SK-MEL-2 > 100 µM | SK-OV-3 > 100 µM | SN12C > 100 µM

CCCCNC(=S)Nc1nc(C(=O)NNC(=S)NCc2ccccc2)cs1
inactive: 786-0 39.4 µM | COLO 205 33.9 µM | HOP-62 > 100 µM | HT-29 37.2 µM | KM12 49.1 µM | MDA-N 39.9 µM | Malme-3M 50.5 µM | NCI-H23 75 µM | NCI-H522 48.5 µM | OVCAR-5 > 100 µM | PC-3 62.1 µM | SF-539 31.9 µM | SK-MEL-2 46.9 µM | SK-OV-3 88.5 µM | SN12C 31 µM | SR 8.24 µM | SW-620 48.2 µM
10.2 µM: HCT-15

COc1cc(CC(C)=O)cc(OC)c1
31.6 µM: HCT-15
inactive: 786-0 > 100 µM | COLO 205 > 100 µM | HL-60 27.3 µM | HOP-62 > 100 µM | HT-29 42.8 µM | MDA-N 27.4 µM | Malme-3M 51.2 µM | NCI-H23 > 100 µM | OVCAR-5 > 100 µM | PC-3 11.3 µM | SK-OV-3 > 100 µM | SN12C 46.8 µM | SR 26.6 µM | SW-620 65.6 µM

Clc1ccc(Oc2ccc(/N=C/c3ccc(Cl)cc3Cl)cc2Cl)cc1
23.8 µM: HCT-15
inactive: 786-0 22.4 µM | COLO 205 64.7 µM | HL-60 9.2 µM | HOP-62 54.3 µM | HT-29 36.9 µM | KM12 29.5 µM | MDA-N 14.8 µM | Malme-3M 27.3 µM | NCI-H23 40.8 µM | NCI-H522 25.2 µM | OVCAR-5 > 100 µM | PC-3 35 µM | SF-539 23.6 µM | SK-MEL-2 61.2 µM | SK-OV-3 73.3 µM | SN12C 48.3 µM | SW-620 33 µM

CCN1CCCC(C#N)(c2ccccc2)CC1 (configuration not stated)
> 100 µM: HCT-15
inactive: 786-0 > 100 µM | COLO 205 > 100 µM | HL-60 > 100 µM | HOP-62 > 100 µM | HT-29 > 100 µM | KM12 > 100 µM | MDA-N > 100 µM | Malme-3M > 100 µM | NCI-H23 > 100 µM | OVCAR-5 > 100 µM | PC-3 > 100 µM | SK-OV-3 > 100 µM | SR > 100 µM | SW-620 > 100 µM

CCOC(=O)CCC(NC(=O)C(Cc1ccc([N+](=O)[O-])cc1)NC(=O)OC(C)(C)C)C(=O)NC(CCC(=O)OCC)C(=O)OCC (configuration not stated) (Boc-[Phe(4-NO2)]-Glu(OEt)-Glu(OEt)-OEt; configuration not given here)
inactive: 786-0 16.8 µM | COLO 205 21.2 µM | HL-60 14.9 µM | HOP-62 24.2 µM | HT-29 16.3 µM | KM12 11.7 µM | MDA-N 21.1 µM | Malme-3M 18.2 µM | NCI-H23 17.9 µM | OVCAR-5 20.7 µM | PC-3 19.7 µM | SK-MEL-2 13.2 µM | SN12C 22.3 µM | SR 2.87 µM | SW-620 17.9 µM
36 µM: HCT-15

O=C1CCC(N2C(=O)c3ccccc3C2=O)C(=O)N1 (configuration not stated) [THALIDOMIDE]
> 100 µM: HCT-15
inactive: 786-0 > 100 µM | COLO 205 > 100 µM | HOP-62 > 100 µM | KM12 > 100 µM | MDA-N > 100 µM | Malme-3M > 100 µM | NCI-H23 > 100 µM | NCI-H522 > 100 µM | OVCAR-5 > 100 µM | PC-3 > 100 µM | SK-MEL-2 > 100 µM | SK-OV-3 > 100 µM | SN12C > 100 µM | SR > 100 µM | SW-620 > 100 µM
